# Results published in US20080003282A1, “Antiparasitical agents and methods for treating, preventing and controlling external parasites in animals” (priority 2005, published 2008).
# Like-named read-outs stand apart in the source and are kept apart here.
# Assays:
# [1] = assay type: physicochemical
# Description: In Vitro Degradation Studies
# A solution containing thioamide derivative of fipronil (“TD-fipronil”) in a solution of CH3CN/H2O (50:50 v/v) and the solution was subjected to the following degradation agents: an acid (0.5 N HCl); a base (0.5 N NaOH); fluorescent light; heat (65° C.); an oxidizer (5% H2O2); and UV light. The identity of fipronil formed was confirmed via HPLC with UV detection and HPLC with diode array detection.
# [2] = parameters: species or system dogs; conditions: dog, po, 10 mg/kg
# Description: In Vivo Degradation Study—Oral Administration
# An oral formulation (solution) comprising 100 mg/ml of thioamide derivatives of fipronil dissolved in 60:40 propylene glycol: glycerol formal was orally administered to dogs at a dosage rate of 10 mg/kg and the concentration of fipronil in blood plasma measured at 6 hours, day 1, day 2, and day 7 and is presented below
compound,measurement,setting,value
NC(=S)c1nn(-c2c(Cl)cc(C(F)(F)F)cc2Cl)c(N)c1[S+]([O-])C(F)(F)F (stereo not shown) [TD-fipronil],degradation product formed,[1],fipronil sulfone
same,stability in acid,[1],stable in acid
same,fipronil formed,"[1]; Acid (0.5 N HCl), 4 days",being degraded in 4 days; negligible amounts
same,fipronil formed,[1]; Base (0.5 N NaOH),no fipronil was formed
same,fipronil formed,[1]; Oxidation (5% H2O2),no fipronil was formed
same,sensitivity to light,[1]; UV light,very sensitive to light
same,in vivo degradation into fipronil judged against efficacy,[2],degrades into fipronil in vivo in amounts that are sufficient for efficacy against fleas and ticks
